Experimental data published in patent US20200390100A1, “SUBSTITUTED N-HETEROCYCLYL- AND N-HETEROARYL-TETRAHYDROPYRIMIDINONES AND THE SALTS THEREOF, AND THE USE OF SAME AS HERBICIDAL ACTIVE SUBSTANCES” (Bayer Aktiengesellschaft, priority 2017, published 2020).

Experiments:
Setaria viridis = experiment: Herbicidal post-emergence action (Part 2), 1280 g/ha; format: in vivo; conditions: application rate 1280 g/ha, rated visually after about 3 weeks, Table C3
How it was run: (§1)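 Plants at the one-leaf stage were treated on green parts with wettable powder or emulsion concentrate preparations diluted in water containing 0.5% additive. Effects were judged by eye after about 3 weeks in the greenhouse, relative to untreated plants.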

Matricaria inodora = experiment: as above; format: in vivo; conditions: application rate 1280 g/ha, rated visually after about 3 weeks, Table C6
How it was run: as §1

Echinochloa crus-galli = experiment: as above; format: in vivo; conditions: post-emergence (Part 2), application rate 1280 g/ha, rated visually after about 3 weeks vs untreated controls
How it was run: as §1

Poa annua = experiment: as above; format: in vivo; conditions: application rate 1280 g/ha, rated visually after about 3 weeks, Table C2
How it was run: as §1

Stellaria media = experiment: as above; format: in vivo; conditions: application rate 1280 g/ha, rated visually after about 3 weeks, Table C7
How it was run: as §1

Abutilon theophrasti = experiment: as above; format: in vivo; conditions: application rate 1280 g/ha, rated visually after about 3 weeks, Table C4
How it was run: as §1

Amaranthus retroflexus = experiment: as above; format: in vivo; conditions: application rate 1280 g/ha, rated visually after about 3 weeks, Table C5
How it was run: as §1

photosystem II (PS II) = target: T1, photosystem II (PS II) (Spinacia oleracea, UniProt P69560); experiment: Measurement of PS II activity in thylakoid membranes (DCPIP reduction); format: biochemical, spinach; conditions: PS II activity in spinach thylakoid membranes, Table E1; read-out: Effect
T1 construct: the chloroplasts were osmotically ruptured and the thylakoid membranes were then obtained by centrifugation; from tissue; host or cells: fresh spinach leaves; thylakoid membrane preparation from isolated chloroplasts
How it was run: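 Thylakoid membranes from osmotically ruptured spinach chloroplasts in 50 mM phosphate pH 6.8, 10 mM KCl; compounds added from 100 μM DMSO solution (2.5% DMSO final), 120 μM DCPIP final. DCPIP reduction under light tracked as absorbance decrease at 595 nm over 10 min at 22 °C; % inhibition binned, metribuzin as plate standard.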

Digitaria sanguinalis = experiment: Pre-emergence herbicidal action, greenhouse, 320 g/ha; format: in vivo; conditions: application rate 320 g/ha, Table B9
How it was run: (§2)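 Soil-surface application onto covered seeds; WP or EC formulation with 0.5% additive in aqueous spray; visual rating at ~3 weeks, 0–100% vs untreated plants.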

Polygonum convolvulus = experiment: as above; format: in vivo; conditions: application rate 320 g/ha, scored visually after about 3 weeks vs untreated controls
How it was run: as §2

CC1CC(O)N(c2cc(C(C)(C)C)on2)C(=O)N1C (stereo not shown) [I.41-162, 1-(5-tert-Butyl-1,2-oxazol-3-yl)-6-hydroxy-3,4-dimethyltetrahydropyrimidin-2(1H)-one]
70 to 90%: inhibition at 100 µM (photosystem II (PS II))
100%: Setaria viridis (Setaria viridis) | Matricaria inodora (Matricaria inodora) | Echinochloa crus-galli (Echinochloa crus-galli) | Poa Annua (Poa annua) | Stellaria media (Stellaria media) | Abutilon theophrasti (Abutilon theophrasti) | Amaranthus retroflexus (Amaranthus retroflexus) | Digitaria sanguinalis (efficacy in %) (Digitaria sanguinalis) | Polygonum convolvulus (efficacy in %) (Polygonum convolvulus)
